Values after ≈ are worked out from the molar mass of the structure shown. Some results are limits rather than exact numbers.

A short description of data set [1]: Aqueous solubility. It is filed as physicochemical. Particulars: aqueous medium at pH 7.4, pH 7.4, aqueous buffer; read-out: Solubility7.4.
Data set [2] in a line: Plasma fraction unbound. It is filed as in vitro ADME. The note with it: mouse, read-out: mouse plasma fu.
Data set [3] deals with Vascular endothelial growth factor receptor 2 (VEGFR-2) (Homo sapiens, UniProt P35968). The data set can be described thus: Selectivity data (Table S1). It is filed as binding.
Sequence of Vascular endothelial growth factor receptor 2 (VEGFR-2) (P35968 20-1356): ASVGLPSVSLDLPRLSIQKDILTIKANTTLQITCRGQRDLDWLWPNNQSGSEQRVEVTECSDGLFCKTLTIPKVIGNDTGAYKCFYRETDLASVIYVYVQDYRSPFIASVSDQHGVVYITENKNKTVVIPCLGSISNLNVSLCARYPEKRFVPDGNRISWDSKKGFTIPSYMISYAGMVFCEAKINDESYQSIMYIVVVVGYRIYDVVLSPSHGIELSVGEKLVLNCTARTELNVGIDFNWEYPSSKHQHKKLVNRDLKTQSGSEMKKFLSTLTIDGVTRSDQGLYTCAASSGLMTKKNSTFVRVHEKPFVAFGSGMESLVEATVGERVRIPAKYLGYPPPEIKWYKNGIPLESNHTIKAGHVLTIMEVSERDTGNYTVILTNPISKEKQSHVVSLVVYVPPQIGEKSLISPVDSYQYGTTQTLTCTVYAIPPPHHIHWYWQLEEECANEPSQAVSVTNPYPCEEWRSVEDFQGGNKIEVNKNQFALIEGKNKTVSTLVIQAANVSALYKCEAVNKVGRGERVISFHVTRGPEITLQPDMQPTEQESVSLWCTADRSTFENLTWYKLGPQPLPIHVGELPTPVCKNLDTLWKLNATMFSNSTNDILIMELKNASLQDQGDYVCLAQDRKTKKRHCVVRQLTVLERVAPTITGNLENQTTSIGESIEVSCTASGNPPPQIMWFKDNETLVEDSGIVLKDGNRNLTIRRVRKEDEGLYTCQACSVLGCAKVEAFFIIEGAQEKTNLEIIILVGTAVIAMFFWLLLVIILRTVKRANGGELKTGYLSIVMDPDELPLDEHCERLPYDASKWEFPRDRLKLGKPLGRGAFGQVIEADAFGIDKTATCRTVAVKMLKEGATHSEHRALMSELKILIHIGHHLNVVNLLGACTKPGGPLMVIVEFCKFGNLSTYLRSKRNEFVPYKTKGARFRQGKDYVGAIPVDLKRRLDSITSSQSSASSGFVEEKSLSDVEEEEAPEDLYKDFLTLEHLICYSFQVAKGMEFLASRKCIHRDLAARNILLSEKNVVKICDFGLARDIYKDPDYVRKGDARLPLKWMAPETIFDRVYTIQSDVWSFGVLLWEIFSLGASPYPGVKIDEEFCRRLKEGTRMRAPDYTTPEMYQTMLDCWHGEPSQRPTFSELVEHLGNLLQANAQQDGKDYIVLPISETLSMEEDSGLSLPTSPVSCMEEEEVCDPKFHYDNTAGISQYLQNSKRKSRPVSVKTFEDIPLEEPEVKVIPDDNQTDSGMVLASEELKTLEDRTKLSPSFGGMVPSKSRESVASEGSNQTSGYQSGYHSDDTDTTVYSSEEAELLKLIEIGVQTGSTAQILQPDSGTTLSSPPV
Data set [4] has as its target Cytochrome P450 1A2 (CYP1A2) (Homo sapiens, UniProt P05177). The data set can be described thus: Selectivity data (Table S1). It is filed as in vitro ADME.
Data set [5] has as its target CYP1A2 (Homo sapiens, UniProt P05177). Kind of data set: Selectivity data (Table S1). It is filed as in vitro ADME. The note with it: 3 µM.
For data set [6], the target named is Cholecystokinin receptor B (CCKBR) (Homo sapiens, UniProt P32239). Kind of data set: Selectivity data (Table S1). It is filed as binding.
Sequence of Cholecystokinin receptor B (CCKBR) (P32239 whole entry): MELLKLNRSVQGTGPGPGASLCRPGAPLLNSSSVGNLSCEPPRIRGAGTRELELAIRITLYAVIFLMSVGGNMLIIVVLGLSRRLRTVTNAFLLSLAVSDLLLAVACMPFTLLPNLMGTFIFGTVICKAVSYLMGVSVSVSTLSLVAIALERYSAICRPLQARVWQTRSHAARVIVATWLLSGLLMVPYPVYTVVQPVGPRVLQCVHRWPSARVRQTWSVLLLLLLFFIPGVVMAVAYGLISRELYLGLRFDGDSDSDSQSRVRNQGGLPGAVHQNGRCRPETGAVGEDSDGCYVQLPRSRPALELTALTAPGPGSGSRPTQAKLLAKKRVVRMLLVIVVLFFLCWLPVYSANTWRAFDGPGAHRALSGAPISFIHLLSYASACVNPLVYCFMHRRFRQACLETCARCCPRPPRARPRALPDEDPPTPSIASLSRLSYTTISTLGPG
Data set [7] deals with Opioid receptor, kappa 1 (OPRK1) (Homo sapiens, UniProt P41145). Kind of data set: Selectivity data (Table S1). It is filed as binding.
Sequence of Opioid receptor, kappa 1 (OPRK1) (P41145 whole entry): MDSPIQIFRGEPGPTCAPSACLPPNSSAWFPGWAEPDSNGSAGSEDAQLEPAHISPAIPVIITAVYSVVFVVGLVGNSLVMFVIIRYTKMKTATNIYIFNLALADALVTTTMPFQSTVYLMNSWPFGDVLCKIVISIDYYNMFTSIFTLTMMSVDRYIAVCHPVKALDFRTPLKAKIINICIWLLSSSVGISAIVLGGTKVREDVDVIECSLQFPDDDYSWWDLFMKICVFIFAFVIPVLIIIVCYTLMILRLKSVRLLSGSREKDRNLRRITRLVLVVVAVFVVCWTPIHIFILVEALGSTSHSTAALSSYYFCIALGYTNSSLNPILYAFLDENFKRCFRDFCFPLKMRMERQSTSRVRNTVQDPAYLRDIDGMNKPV
Data set [8] addresses Phosphodiesterase 5A1 (PDE5A1) (Homo sapiens, UniProt O76074). Kind of data set: Selectivity data (Table S1). It is filed as biochemical.
In data set [9] the target is Arginine vasopressin receptor 1A (AVPR1A) (Homo sapiens, UniProt P37288). Kind of data set: Selectivity data (Table S1). It is filed as binding.
Sequence of Arginine vasopressin receptor 1A (AVPR1A) (P37288 whole entry): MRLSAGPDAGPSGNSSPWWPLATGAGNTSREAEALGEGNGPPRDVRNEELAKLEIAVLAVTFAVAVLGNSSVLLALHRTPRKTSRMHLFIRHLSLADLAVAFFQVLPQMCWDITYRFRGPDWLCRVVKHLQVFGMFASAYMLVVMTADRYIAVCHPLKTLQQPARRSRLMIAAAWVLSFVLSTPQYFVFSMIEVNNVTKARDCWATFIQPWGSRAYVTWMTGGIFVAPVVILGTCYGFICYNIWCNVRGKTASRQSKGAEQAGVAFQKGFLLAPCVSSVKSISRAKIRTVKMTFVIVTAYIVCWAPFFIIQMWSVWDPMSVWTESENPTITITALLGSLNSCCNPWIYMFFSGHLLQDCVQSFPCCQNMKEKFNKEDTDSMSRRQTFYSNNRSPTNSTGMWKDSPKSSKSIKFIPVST
For data set [10], the target named is Monoamine oxidase A (MAOA) (Homo sapiens, UniProt P21397). Kind of data set: Selectivity data (Table S1). It is filed as biochemical.
Sequence of Monoamine oxidase A (MAOA) (P21397 whole entry): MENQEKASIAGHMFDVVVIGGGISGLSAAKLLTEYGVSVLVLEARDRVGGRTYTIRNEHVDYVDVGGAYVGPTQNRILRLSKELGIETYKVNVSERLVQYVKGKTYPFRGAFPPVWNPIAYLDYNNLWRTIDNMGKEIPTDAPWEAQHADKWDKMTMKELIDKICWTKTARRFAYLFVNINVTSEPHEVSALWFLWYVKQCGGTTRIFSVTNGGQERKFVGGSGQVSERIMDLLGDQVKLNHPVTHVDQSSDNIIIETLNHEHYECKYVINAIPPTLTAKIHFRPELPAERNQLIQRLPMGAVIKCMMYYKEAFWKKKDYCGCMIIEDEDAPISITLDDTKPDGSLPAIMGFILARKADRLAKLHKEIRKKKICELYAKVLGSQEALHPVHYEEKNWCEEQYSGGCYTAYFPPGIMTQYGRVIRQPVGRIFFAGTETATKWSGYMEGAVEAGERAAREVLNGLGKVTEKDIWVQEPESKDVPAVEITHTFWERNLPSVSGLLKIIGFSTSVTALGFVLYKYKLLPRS
Data set [11] concerns the target Muscarinic acetylcholine receptor 3 (M3) (Homo sapiens, UniProt P20309). The data set can be described thus: Selectivity data (Table S1). It is filed as binding.
In data set [12] the test system is human hepatocytes. Kind of data set: U-[13C]-citrate uptake and incorporation into TCA cycle intermediates in human hepatocytes. It is filed as cell-based. The note with it: 500 μM U-[13C]-citrate, 30 μM compound. The protocol:
Primary hepatocytes were given the indicated substrates (compound and labeled citrate) under the same conditions used to generate the IC50 curves. Incubations were stopped by rapidly removing culture media and adding 80% methanol pre-cooled in dry ice. Cellular debris was removed by centrifugation and samples dried by Speedvac. Dried cell extracts were then re-dissolved in 100 μL HPLC-grade water. Citrate uptake was analyzed by injecting a 10 μL aliquot of sample onto an Imtakt UK-Phenyl (2.1 mm × 150 mm) column (Imtakt USA, Philadelphia, PA, USA) using a Waters Acquity UPLC system (Waters Corp., Milford, MA, USA) coupled to a Thermo Q-Exactive mass spectrometer (Thermo Corp., San Jose, CA, USA). […] Metabolites were monitored using negative ion electrospray, ESI(-), in full scan mode with a resolution of 70,000 FWHM calibrated to mass accuracy <2 ppm. […] Citrate transport was determined through enrichment of ^13C6-citrate into the intracellular pool of citrate as determined by the percent ^13C6-citrate in the total pool. Fate of citrate carbon through one turn of the TCA cycle was analyzed by comparing percent labeling into the respective pools of ^13C4-fumarate, ^13C4-malate, and ^13C4-glutamate. Thermo LCQuan (Thermo Corp, San Jose, CA, USA) was used to extract out exact mass using a 5 ppm window at the calculated accurate mass for each metabolite and its isotopomer. […]

Data set [13] is described as follows: Genetic toxicity assays.
Data set [14] concerns the target CYP3A4 (Homo sapiens, UniProt P08684). Kind of data set: Selectivity data (Table S1). It is filed as in vitro ADME. Particulars: 3 µM.
Data set [15] concerns the target Cytochrome P450 3A4 (CYP3A4) (Homo sapiens, UniProt P08684). The data set can be described thus: Selectivity data (Table S1). It is filed as in vitro ADME.
Data set [16] is described as follows: pKa. It is filed as physicochemical.

Sequence of Muscarinic acetylcholine receptor 3 (M3) (P20309 whole entry): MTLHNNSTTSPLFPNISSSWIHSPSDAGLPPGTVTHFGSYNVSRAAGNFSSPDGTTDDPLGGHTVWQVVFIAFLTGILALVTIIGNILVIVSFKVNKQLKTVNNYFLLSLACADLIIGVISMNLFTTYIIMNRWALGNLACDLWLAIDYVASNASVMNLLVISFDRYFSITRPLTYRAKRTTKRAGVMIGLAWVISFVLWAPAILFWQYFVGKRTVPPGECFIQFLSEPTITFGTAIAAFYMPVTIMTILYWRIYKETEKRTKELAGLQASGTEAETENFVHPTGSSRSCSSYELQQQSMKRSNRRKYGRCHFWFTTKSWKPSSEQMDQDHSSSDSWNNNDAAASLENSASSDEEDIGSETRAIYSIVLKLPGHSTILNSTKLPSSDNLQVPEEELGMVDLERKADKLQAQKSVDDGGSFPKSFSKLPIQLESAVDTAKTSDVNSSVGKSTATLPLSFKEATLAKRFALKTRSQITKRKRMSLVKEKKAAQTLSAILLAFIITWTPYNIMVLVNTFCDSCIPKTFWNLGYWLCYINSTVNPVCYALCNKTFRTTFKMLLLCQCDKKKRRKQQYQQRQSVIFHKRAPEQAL
Sequence of Cytochrome P450 3A4 (CYP3A4) (P08684 whole entry): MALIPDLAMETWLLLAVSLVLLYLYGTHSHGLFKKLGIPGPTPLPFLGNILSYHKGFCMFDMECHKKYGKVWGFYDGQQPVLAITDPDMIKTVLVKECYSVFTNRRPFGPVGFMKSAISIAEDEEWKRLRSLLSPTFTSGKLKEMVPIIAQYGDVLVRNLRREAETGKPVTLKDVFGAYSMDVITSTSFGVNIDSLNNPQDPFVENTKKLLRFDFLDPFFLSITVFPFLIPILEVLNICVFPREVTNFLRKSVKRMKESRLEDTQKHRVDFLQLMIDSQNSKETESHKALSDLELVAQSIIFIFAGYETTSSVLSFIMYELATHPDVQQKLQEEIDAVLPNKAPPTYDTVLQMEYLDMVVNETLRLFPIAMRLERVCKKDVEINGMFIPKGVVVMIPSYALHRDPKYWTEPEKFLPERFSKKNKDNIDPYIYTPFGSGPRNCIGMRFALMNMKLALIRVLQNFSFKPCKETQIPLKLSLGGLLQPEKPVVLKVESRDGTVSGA
Sequence of CYP3A4 (P08684 whole entry): as above
Sequence of Cytochrome P450 1A2 (CYP1A2) (P05177 whole entry): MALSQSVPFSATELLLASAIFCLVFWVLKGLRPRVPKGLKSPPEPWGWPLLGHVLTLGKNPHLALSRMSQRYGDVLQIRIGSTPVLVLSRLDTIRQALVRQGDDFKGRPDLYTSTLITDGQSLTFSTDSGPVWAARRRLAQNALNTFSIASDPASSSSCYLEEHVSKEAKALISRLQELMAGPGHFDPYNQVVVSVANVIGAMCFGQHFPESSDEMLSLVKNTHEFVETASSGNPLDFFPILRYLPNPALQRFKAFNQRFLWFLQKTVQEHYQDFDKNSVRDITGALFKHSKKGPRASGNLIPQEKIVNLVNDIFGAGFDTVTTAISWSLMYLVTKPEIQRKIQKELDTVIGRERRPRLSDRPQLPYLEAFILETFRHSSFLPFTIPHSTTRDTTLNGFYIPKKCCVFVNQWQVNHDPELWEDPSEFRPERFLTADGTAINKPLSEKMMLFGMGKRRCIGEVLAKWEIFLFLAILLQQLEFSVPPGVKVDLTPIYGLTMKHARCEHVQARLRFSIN
Sequence of CYP1A2 (P05177 whole entry): as above

As for `CC(C)(C)c1ccc(CC[C@@](O)(CC(=O)O)C(=O)O)cc1` [Compound 2], in [1], the solubility was 33 mM (≈ 9710 µg/mL). Besides, in data set [2], the fraction unbound is 0.26. In addition, the inhibition at 100 µM in data set [3] was less than 10%; in data set [6] it was less than 10%; in data set [7], 13%; in [9], less than 10%; in [10], less than 10%; in [11], less than 10%. Moreover, the “interaction/inhibition of CYP1A2” value in data set [4] is reported as “no significant interaction/inhibition”. Further, the inhibition at 3 µM is less than 10% in [5] and 12% in data set [14]. In addition, in data set [8], the IC50 was more than 30 µM. Moreover, in [12], the “uniform labeling of citrate, malate, glutamate and fumarate from U-[13C]-citrate” value is “reduced”. The genetic toxicity result in data set [13] is listed as “negative”. The “interaction/inhibition of CYP3A4” value in data set [15] is given as “no significant interaction/inhibition”. In addition, the pKa in data set [16] was determined as 3.1.

The values are drawn from PMC4664966, “Discovery and characterization of novel inhibitors of the sodium-coupled citrate transporter (NaCT or SLC13A5)” (Scientific Reports, 2015).
